Key:
Experiment in all cases: Post-emergence test experiment (Table 3, 1000 g/ha)
Assay type in all cases: in vivo
Conditions in all cases: post-emergence spray, after 3 weeks, fresh weight inhibition
Abutilon theophrasti = system: Abutilon theophrasti
Text: (§1) The activity level standard of harmful plants destruction (i. e. growth inhibition rate) is as follows: • Level 5: the growth inhibition rate is greater than 85%; • Level 4: the growth inhibition rate is equal to or greater than 60% and less than 85%; • Level 3: the growth inhibition rate is equal to or greater than 40% and less than 60%; • Level 2: the growth inhibition rate is equal to or greater than 20% and less than 40%; • Level 1: the growth inhibition rate is equal to or greater than 5% and less than 20%; • Level 0: the growth inhibition rate is less than 5%;
(§2) The above described growth inhibition rate is fresh weight inhibition rate.
(§3) Post-emergence test experiment: Monocotyledonous and dicotyledonous weed seeds and main crop seeds (i. e. wheat, corn, rice, soybean, cotton, oilseed, millet and sorghum.) were put into a plastic pot loaded with soil. Then covered with 0.5-2 cm soil, the seeds were allowed to grow in good greenhouse environment. The test plants were treated at 2-3 leaf stage 2 weeks after sowing. The test compounds of the invention were dissolved with acetone respectively, then added with tween-80, and using 1.5 liters per hectare of an emulsible concentrate of methyl oleate as a synergist, and diluted by certain amount of water to certain concentration. The solution was sprayed to the plants with a sprayer. Then the plants were cultured for 3 weeks in the greenhouse, and the experiment result of weed controlling effect after 3 weeks was listed in tables 3-4.

Digitaria sanguinalis = system: Digitaria sanguinalis
Text: as §1, §2, §3

Galium spurium = system: Galium spurium
Text: as §1, §2, §3

Leptochloa chinensis = system: Leptochloa chinensis
Text: as §1, §2, §3

Monochoria vaginalis = system: Monochoria vaginalis
Text: as §1, §2, §3

Setaria viridis = system: Setaria viridis
Text: as §1, §2, §3

SMILES: COC(=O)C(NC(=O)OC(C)(C)C)SC(=O)C(C)Oc1nc(F)c(Cl)c(N)c1Cl (stereo not drawn) [Compound 104]
- Activity level (growth inhibition rate) Abutilon theophrasti (Abutilon theophrasti): 5 (Level 5: the growth inhibition rate is greater than 85%)
- Activity level (growth inhibition rate) Digitaria sanguinalis (Digitaria sanguinalis): 5 (Level 5: the growth inhibition rate is greater than 85%)
- Activity level (growth inhibition rate) Galium spurium (Galium spurium): 5 (Level 5: the growth inhibition rate is greater than 85%)
- Activity level (growth inhibition rate) Leptochloa chinensis (Leptochloa chinensis): 5 (Level 5: the growth inhibition rate is greater than 85%)
- Activity level (growth inhibition rate) Monochoria Vaginalis (Monochoria vaginalis): 5 (Level 5: the growth inhibition rate is greater than 85%)
- Activity level (growth inhibition rate) Setaria viridis (Setaria viridis): 5 (Level 5: the growth inhibition rate is greater than 85%)

SMILES: CC(Oc1nc(F)c(Cl)c(N)c1Cl)C(=O)SCC#N (stereo not drawn) [Compound 155]
- Activity level (growth inhibition rate) Abutilon theophrasti (Abutilon theophrasti): 5 (Level 5: the growth inhibition rate is greater than 85%)
- Activity level (growth inhibition rate) Digitaria sanguinalis (Digitaria sanguinalis): 5 (Level 5: the growth inhibition rate is greater than 85%)
- Activity level (growth inhibition rate) Galium spurium (Galium spurium): 5 (Level 5: the growth inhibition rate is greater than 85%)
- Activity level (growth inhibition rate) Leptochloa chinensis (Leptochloa chinensis): 5 (Level 5: the growth inhibition rate is greater than 85%)
- Activity level (growth inhibition rate) Monochoria Vaginalis (Monochoria vaginalis): 5 (Level 5: the growth inhibition rate is greater than 85%)
- Activity level (growth inhibition rate) Setaria viridis (Setaria viridis): 5 (Level 5: the growth inhibition rate is greater than 85%)

SMILES: CSC(=O)C(C)Oc1nc(F)c(Cl)c(N)c1C (stereo not drawn) [Compound 20]
- Activity level (growth inhibition rate) Abutilon theophrasti (Abutilon theophrasti): 5 (Level 5: the growth inhibition rate is greater than 85%)
- Activity level (growth inhibition rate) Digitaria sanguinalis (Digitaria sanguinalis): 5 (Level 5: the growth inhibition rate is greater than 85%)
- Activity level (growth inhibition rate) Galium spurium (Galium spurium): 5 (Level 5: the growth inhibition rate is greater than 85%)
- Activity level (growth inhibition rate) Leptochloa chinensis (Leptochloa chinensis): 5 (Level 5: the growth inhibition rate is greater than 85%)
- Activity level (growth inhibition rate) Monochoria Vaginalis (Monochoria vaginalis): 5 (Level 5: the growth inhibition rate is greater than 85%)
- Activity level (growth inhibition rate) Setaria viridis (Setaria viridis): 5 (Level 5: the growth inhibition rate is greater than 85%)

SMILES: CCC(C)SC(=O)C(C)Oc1nc(F)c(Cl)c(N)c1Cl (stereo not drawn) [Compound 69]
- Activity level (growth inhibition rate) Abutilon theophrasti (Abutilon theophrasti): 5 (Level 5: the growth inhibition rate is greater than 85%)
- Activity level (growth inhibition rate) Digitaria sanguinalis (Digitaria sanguinalis): 5 (Level 5: the growth inhibition rate is greater than 85%)
- Activity level (growth inhibition rate) Galium spurium (Galium spurium): 5 (Level 5: the growth inhibition rate is greater than 85%)
- Activity level (growth inhibition rate) Leptochloa chinensis (Leptochloa chinensis): 5 (Level 5: the growth inhibition rate is greater than 85%)
- Activity level (growth inhibition rate) Monochoria Vaginalis (Monochoria vaginalis): 5 (Level 5: the growth inhibition rate is greater than 85%)
- Activity level (growth inhibition rate) Setaria viridis (Setaria viridis): 5 (Level 5: the growth inhibition rate is greater than 85%)

SMILES: CCc1c(OC(C)C(=O)SC)nc(C(F)(F)F)c(CC)c1N (stereo not drawn) [Compound 8]
- Activity level (growth inhibition rate) Abutilon theophrasti (Abutilon theophrasti): 5 (Level 5: the growth inhibition rate is greater than 85%)
- Activity level (growth inhibition rate) Digitaria sanguinalis (Digitaria sanguinalis): 5 (Level 5: the growth inhibition rate is greater than 85%)
- Activity level (growth inhibition rate) Galium spurium (Galium spurium): 5 (Level 5: the growth inhibition rate is greater than 85%)
- Activity level (growth inhibition rate) Leptochloa chinensis (Leptochloa chinensis): 5 (Level 5: the growth inhibition rate is greater than 85%)
- Activity level (growth inhibition rate) Monochoria Vaginalis (Monochoria vaginalis): 5 (Level 5: the growth inhibition rate is greater than 85%)
- Activity level (growth inhibition rate) Setaria viridis (Setaria viridis): 5 (Level 5: the growth inhibition rate is greater than 85%)

SMILES: CC(C)CSC(=O)C(C)Oc1nc(F)c(Cl)c(N)c1Cl (stereo not drawn) [Compound 133]
- Activity level (growth inhibition rate) Abutilon theophrasti (Abutilon theophrasti): 5 (Level 5: the growth inhibition rate is greater than 85%)
- Activity level (growth inhibition rate) Digitaria sanguinalis (Digitaria sanguinalis): 5 (Level 5: the growth inhibition rate is greater than 85%)
- Activity level (growth inhibition rate) Galium spurium (Galium spurium): 5 (Level 5: the growth inhibition rate is greater than 85%)
- Activity level (growth inhibition rate) Leptochloa chinensis (Leptochloa chinensis): 5 (Level 5: the growth inhibition rate is greater than 85%)
- Activity level (growth inhibition rate) Monochoria Vaginalis (Monochoria vaginalis): 5 (Level 5: the growth inhibition rate is greater than 85%)
- Activity level (growth inhibition rate) Setaria viridis (Setaria viridis): 5 (Level 5: the growth inhibition rate is greater than 85%)

SMILES: COC(=O)CSC(=O)C(C)Oc1nc(F)c(Cl)c(N)c1Cl (stereo not drawn) [Compound 93]
- Activity level (growth inhibition rate) Abutilon theophrasti (Abutilon theophrasti): 5 (Level 5: the growth inhibition rate is greater than 85%)
- Activity level (growth inhibition rate) Digitaria sanguinalis (Digitaria sanguinalis): 5 (Level 5: the growth inhibition rate is greater than 85%)
- Activity level (growth inhibition rate) Galium spurium (Galium spurium): 5 (Level 5: the growth inhibition rate is greater than 85%)
- Activity level (growth inhibition rate) Leptochloa chinensis (Leptochloa chinensis): 5 (Level 5: the growth inhibition rate is greater than 85%)
- Activity level (growth inhibition rate) Monochoria Vaginalis (Monochoria vaginalis): 5 (Level 5: the growth inhibition rate is greater than 85%)
- Activity level (growth inhibition rate) Setaria viridis (Setaria viridis): 5 (Level 5: the growth inhibition rate is greater than 85%)

SMILES: CCCCCCCCCCSC(=O)C(C)Oc1nc(F)c(Cl)c(N)c1Cl (stereo not drawn) [Compound 141]
- Activity level (growth inhibition rate) Abutilon theophrasti (Abutilon theophrasti): 5 (Level 5: the growth inhibition rate is greater than 85%)
- Activity level (growth inhibition rate) Digitaria sanguinalis (Digitaria sanguinalis): 5 (Level 5: the growth inhibition rate is greater than 85%)
- Activity level (growth inhibition rate) Galium spurium (Galium spurium): 5 (Level 5: the growth inhibition rate is greater than 85%)
- Activity level (growth inhibition rate) Leptochloa chinensis (Leptochloa chinensis): 5 (Level 5: the growth inhibition rate is greater than 85%)
- Activity level (growth inhibition rate) Monochoria Vaginalis (Monochoria vaginalis): 5 (Level 5: the growth inhibition rate is greater than 85%)
- Activity level (growth inhibition rate) Setaria viridis (Setaria viridis): 5 (Level 5: the growth inhibition rate is greater than 85%)

SMILES: CC(Oc1nc(F)c(Cl)c(N)c1Cl)C(=O)Sc1cccc(N(C)C)c1 (stereo not drawn) [Compound 109]
- Activity level (growth inhibition rate) Abutilon theophrasti (Abutilon theophrasti): 5 (Level 5: the growth inhibition rate is greater than 85%)
- Activity level (growth inhibition rate) Digitaria sanguinalis (Digitaria sanguinalis): 5 (Level 5: the growth inhibition rate is greater than 85%)
- Activity level (growth inhibition rate) Galium spurium (Galium spurium): 5 (Level 5: the growth inhibition rate is greater than 85%)
- Activity level (growth inhibition rate) Leptochloa chinensis (Leptochloa chinensis): 5 (Level 5: the growth inhibition rate is greater than 85%)
- Activity level (growth inhibition rate) Monochoria Vaginalis (Monochoria vaginalis): 5 (Level 5: the growth inhibition rate is greater than 85%)
- Activity level (growth inhibition rate) Setaria viridis (Setaria viridis): 5 (Level 5: the growth inhibition rate is greater than 85%)

SMILES: CSC(=O)C(C)Oc1nc(C(F)(F)F)c(F)c(N)c1C(C)C (stereo not drawn) [Compound 11]
- Activity level (growth inhibition rate) Abutilon theophrasti (Abutilon theophrasti): 5 (Level 5: the growth inhibition rate is greater than 85%)
- Activity level (growth inhibition rate) Digitaria sanguinalis (Digitaria sanguinalis): 5 (Level 5: the growth inhibition rate is greater than 85%)
- Activity level (growth inhibition rate) Galium spurium (Galium spurium): 5 (Level 5: the growth inhibition rate is greater than 85%)
- Activity level (growth inhibition rate) Leptochloa chinensis (Leptochloa chinensis): 5 (Level 5: the growth inhibition rate is greater than 85%)
- Activity level (growth inhibition rate) Monochoria Vaginalis (Monochoria vaginalis): 5 (Level 5: the growth inhibition rate is greater than 85%)
- Activity level (growth inhibition rate) Setaria viridis (Setaria viridis): 5 (Level 5: the growth inhibition rate is greater than 85%)

SMILES: CCCC(C)CSC(=O)C(C)Oc1nc(F)c(Cl)c(N)c1Cl (stereo not drawn) [Compound 152]
- Activity level (growth inhibition rate) Abutilon theophrasti (Abutilon theophrasti): 5 (Level 5: the growth inhibition rate is greater than 85%)
- Activity level (growth inhibition rate) Digitaria sanguinalis (Digitaria sanguinalis): 5 (Level 5: the growth inhibition rate is greater than 85%)
- Activity level (growth inhibition rate) Galium spurium (Galium spurium): 5 (Level 5: the growth inhibition rate is greater than 85%)
- Activity level (growth inhibition rate) Leptochloa chinensis (Leptochloa chinensis): 5 (Level 5: the growth inhibition rate is greater than 85%)
- Activity level (growth inhibition rate) Monochoria Vaginalis (Monochoria vaginalis): 5 (Level 5: the growth inhibition rate is greater than 85%)
- Activity level (growth inhibition rate) Setaria viridis (Setaria viridis): 5 (Level 5: the growth inhibition rate is greater than 85%)
